Test results taken from PMC4421842 (Nature Communications, 2015).
Converted amounts (≈) assume the structure as drawn. Where two headings read alike, the source gives them in different places.

Key:
[1] = system: E. faecalis; experiment: microbe, parasite or virus in culture; type: cell-based; details: for MIC: Enterococcus faecalis, E. faecalis
[2] = system: E. faecium; experiment: microbe, parasite or virus in culture; type: cell-based; details: for MIC: Enterococcus faecium, E. faecium
[3] = system: E. coli; experiment: microbe, parasite or virus in culture; type: cell-based
From the text: (§1) MRSA and P. aeruginosa isolates were from Cubist Pharmaceuticals (Lexington, MA). VRE isolates were from a previously published collection. E. coli strains were obtained either from ATCC or Professor Cari Vanderpool (UIUC). A. baumannii isolates were obtained from Dr John Quale[51].
(§2) Mueller Hinton (MH) broth was used.

[4] = system: P. aeruginosa; experiment: MIC, microdilution broth, P. aeruginosa; type: cell-based
From the text: as §1, §2

[5] = system: A. baumannii; experiment: MIC, microdilution broth, A. baumannii; type: cell-based; details: for MIC: Acinetobacter baumannii
From the text: as §1, §2

[6] = system: resistant strains of ATCC 29213; experiment: microbe, parasite or virus in culture; type: cell-based, S. aureus; details: Staphylococcus aureus
[7] = system: P. aeruginosa; set-up: method as in earlier work; details: previously determined, cited from earlier work
[8] = system: A. baumannii; set-up: method as in earlier work; details: previously determined, cited from earlier work
[9] = system: WT S. aureus (ATCC 29213, WT); experiment: microbe, parasite or virus in culture; type: cell-based; details: WT GyrA and WT ParC, three independent replicates; for MIC against S. aureus 29213: ATCC 29213; for MIC: Staphylococcus aureus, ATCC29213, ATCC 29213, read-out: MIC against S. aureus 29213
[10] = system: FQR S. aureus (NRS3, FQR); experiment: MIC, microdilution broth assay, FQR MRSA NRS3; type: cell-based; details: NRS3; S84L GyrA and S80F ParC; three independent replicates
[11] = system: MRSA clinical isolates; experiment: microbe, parasite or virus in culture; type: cell-based, S. aureus; details: for MIC: Staphylococcus aureus, MRSA, read-out: MIC
Method: as §1
Susceptibility testing was performed in triplicate, using the microdilution broth method as outlined by the Clinical and Laboratory Standards Institute[52]. Mueller Hinton (MH) broth was used.

[12] = system: Ent. Spp.; experiment: MIC, microdilution broth, Ent. Spp. VRE clinical isolate; type: cell-based; details: Enterococcus, C28036, gyrA Ser83Ile, parC Ser80Ile
From the text: as §1, §2

[13] = system: VRE clinical isolates; experiment: MIC, VRE clinical isolates panel (summary by GyrA mutation); type: cell-based, Enterococcus; details: panel of VRE clinical isolates (n=22)
From the text: as §1, §2

[14] = physchem; details: pH 7.4
Method: (§3) Three independent replicates of each compound were performed.

[15] = set-up: method as in PMID 24545057; details: dosed subcutaneously, orally or by intraperitoneal injection; cited from earlier work
[16] = system: K. pneuomoniae, S. aureus or Mycobacterium tuberculosis; set-up: method as in PMID 24545057; details: cited from earlier work
[17] = Aqueous solubility determination; details: PBS, pH 7.4
Method: as §3

[18] = biological target: T1, human topoisomerase II (Homo sapiens, UniProt P11388); experiment: Human topoisomerase decatenation assay; type: biochemical
T1 construct: purchased Inspiralis
Method: The decatenation assay was performed with the Human Topo II Decatenation Assay Kit (Inspiralis), according to the manufacturer's instructions, with minor modifications. First, a master mix was made containing 2 μl of 10 × assay buffer (500 mM Tris-HCl pH 7.5, 1250, mM NaCl, 100 mM MgCl2, 50 mM DTT, 1,000 μg ml^−1 albumin), 0.67 μl of 30 mM ATP, 1.34 μl of 0.1 ng μl^−1 kDNA, and 14.3 μl of nuclease-free water per sample is made. DMSO or 30 × compound is added to a 0.5-ml Eppendorf tube (0.67 μl per tube). The master mix is then added to each tube (18.3 μl per tube). Finally, 1 U of human topoisomerase (1 μl of 1 U μl^−1 stock) is added to each tube for a final volume of 20 μl. The tubes are then incubated at 37 °C for 30 min. Reactions are stopped by the addition of 20 μl of 24:1 chloroform:isoamyl alcohol and 20 μl of stop dye (40% sucrose, 1 mM EDTA, 100 mM Tris-HCl pH 7.5, 0.5 μg ml^−1 bromophenol blue). Samples were run on 1% agarose gels containing 0.5 μg ml^−1 ethidium bromide for 1 h at 110 V or until the dye front was approximately halfway down the gel. Gels were imaged on a Molecular Imager Gel Doc XR+ (Biorad).

[19] = ATCC19433, ATCC 19433, gyrA WT, parC WT
[20] = ATCC29212, ATCC 29212, gyrA WT, parC WT

T1 sequence (P11388 whole entry): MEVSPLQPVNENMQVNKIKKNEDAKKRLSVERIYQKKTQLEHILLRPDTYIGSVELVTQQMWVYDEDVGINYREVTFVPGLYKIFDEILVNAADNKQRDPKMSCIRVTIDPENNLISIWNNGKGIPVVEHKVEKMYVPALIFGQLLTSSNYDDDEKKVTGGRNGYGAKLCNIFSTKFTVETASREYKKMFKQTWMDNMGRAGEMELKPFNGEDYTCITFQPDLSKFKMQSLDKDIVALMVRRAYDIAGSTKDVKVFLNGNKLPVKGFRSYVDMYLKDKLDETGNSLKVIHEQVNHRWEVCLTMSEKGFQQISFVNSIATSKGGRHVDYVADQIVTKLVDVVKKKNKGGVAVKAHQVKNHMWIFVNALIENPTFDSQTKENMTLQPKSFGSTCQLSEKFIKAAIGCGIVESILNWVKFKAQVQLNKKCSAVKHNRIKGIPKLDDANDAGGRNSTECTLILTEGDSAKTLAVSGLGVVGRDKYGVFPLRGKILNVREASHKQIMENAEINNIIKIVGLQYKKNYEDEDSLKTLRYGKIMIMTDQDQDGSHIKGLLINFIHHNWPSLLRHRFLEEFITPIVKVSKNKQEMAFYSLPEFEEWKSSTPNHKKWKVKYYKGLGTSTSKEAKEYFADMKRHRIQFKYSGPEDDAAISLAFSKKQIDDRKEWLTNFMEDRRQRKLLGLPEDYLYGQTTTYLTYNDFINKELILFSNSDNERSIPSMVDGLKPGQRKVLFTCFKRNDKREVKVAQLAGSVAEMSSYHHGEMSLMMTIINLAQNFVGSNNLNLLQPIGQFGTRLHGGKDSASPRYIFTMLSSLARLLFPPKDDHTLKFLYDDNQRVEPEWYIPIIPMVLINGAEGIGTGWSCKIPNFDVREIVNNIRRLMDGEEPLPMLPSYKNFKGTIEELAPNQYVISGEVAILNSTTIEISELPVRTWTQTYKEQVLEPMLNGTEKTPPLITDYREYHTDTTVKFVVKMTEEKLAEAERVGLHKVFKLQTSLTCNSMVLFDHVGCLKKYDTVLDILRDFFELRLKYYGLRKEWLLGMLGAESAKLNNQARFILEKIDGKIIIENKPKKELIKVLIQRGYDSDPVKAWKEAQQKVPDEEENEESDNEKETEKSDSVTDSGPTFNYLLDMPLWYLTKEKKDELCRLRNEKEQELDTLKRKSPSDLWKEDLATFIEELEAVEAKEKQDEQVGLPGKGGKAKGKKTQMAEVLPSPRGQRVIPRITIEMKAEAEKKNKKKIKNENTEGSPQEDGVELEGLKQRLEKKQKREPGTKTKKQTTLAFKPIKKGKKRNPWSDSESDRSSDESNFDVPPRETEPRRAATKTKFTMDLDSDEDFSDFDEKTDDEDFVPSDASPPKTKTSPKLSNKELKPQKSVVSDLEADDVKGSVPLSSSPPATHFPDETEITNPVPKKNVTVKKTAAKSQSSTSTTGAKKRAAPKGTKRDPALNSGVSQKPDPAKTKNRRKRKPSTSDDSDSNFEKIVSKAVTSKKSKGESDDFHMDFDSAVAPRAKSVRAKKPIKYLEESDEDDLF

O=C(O)c1cn(C2CC2)c2cc(N3CCNCC3)c(F)cc2c1=O [CIP, ciprofloxacin, reference compound]
MIC [1, 19]: 2 µg/mL (≈ 6.04 µM)
MIC [1, 20]: 0.5 to 2 µg/mL (≈ 1.51 to 6.04 µM)
CIP (S/I/R) ([1]; strain ATCC 19433): S (sensitive (S) if it had an MIC ≤ 4 µg mL-1)
CIP (S/I/R) ([1]; strain ATCC 29212): S (sensitive (S) if it had an MIC ≤ 4 µg mL-1)
CIP (S/I/R) ([1]; strain C21667): R (resistant (R) with a MIC ≥ 16 µg mL-1)
CIP (S/I/R) ([1]; strain C28535): R (resistant (R) with a MIC ≥ 16 µg mL-1)
CIP (S/I/R) ([1]; strain S206): R (resistant (R) with a MIC ≥ 16 µg mL-1)
CIP (S/I/R) ([1]; strain S234): R (resistant (R) with a MIC ≥ 16 µg mL-1)
CIP (S/I/R) ([2]; strain C21190): R (resistant (R) with a MIC ≥ 16 µg mL-1)
CIP (S/I/R) ([2]; strain C27282): R (resistant (R) with a MIC ≥ 16 µg mL-1)
CIP (S/I/R) ([2]; strain C27569): R (resistant (R) with a MIC ≥ 16 µg mL-1)
CIP (S/I/R) ([2]; strain D1): R (resistant (R) with a MIC ≥ 16 µg mL-1)
CIP (S/I/R) ([2]; strain S34): R (resistant (R) with a MIC ≥ 16 µg mL-1)
CIP (S/I/R) ([2]; strain S51): R (resistant (R) with a MIC ≥ 16 µg mL-1)
CIP (S/I/R) ([2]; strain S122): R (resistant (R) with a MIC ≥ 16 µg mL-1)
CIP (S/I/R) ([2]; strain S226): R (resistant (R) with a MIC ≥ 16 µg mL-1)
CIP (S/I/R) ([2]; strain S235): R (resistant (R) with a MIC ≥ 16 µg mL-1)
CIP (S/I/R) ([2]; strain S344): R (resistant (R) with a MIC ≥ 16 µg mL-1)
CIP (S/I/R) ([2]; strain S557): R (resistant (R) with a MIC ≥ 16 µg mL-1)
CIP (S/I/R) ([2]; strain SL152): R (resistant (R) with a MIC ≥ 16 µg mL-1)
CIP (S/I/R) ([2]; strain U63): R (resistant (R) with a MIC ≥ 16 µg mL-1)
CIP (S/I/R) ([2]; strain U275): R (resistant (R) with a MIC ≥ 16 µg mL-1)
CIP (S/I/R) ([2]; strain U464): R (resistant (R) with a MIC ≥ 16 µg mL-1)
CIP (S/I/R) ([2]; strain U503): R (resistant (R) with a MIC ≥ 16 µg mL-1)
CIP (S/I/R) ([2]; strain U563): R (resistant (R) with a MIC ≥ 16 µg mL-1)
CIP (S/R) [3]: S
CIP (S/R) [4]: S
CIP (S/R) [5]: S
MIC ([6]; ATCC29213, high-level CIP-resistant strains, second step, S84L mutation in GyrA): 16 to 64 µg/mL (≈ 48.3 to 193 µM)
MIC ([6]; ATCC29213, low-level CIP-resistant strains, first step, WT gyrA, mutation in ParC (for example E84K or S80F)): 4 to 8 µg/mL (≈ 12.1 to 24.1 µM)
CIP (S/R) ([7]; PA1000): R
CIP (S/R) ([7]; PA1586): R
CIP (S/R) ([8]; A. baumannii KB304): R
CIP MIC ([8]; A. baumannii KB304): 24 µg/mL
CIP (S/R) ([8]; A. baumannii KB349): R
CIP MIC ([8]; A. baumannii KB349): > 32 µg/mL

CCCn1c(=O)cc(C)c2cc3c(C)cc(=O)n4c3c(c21)OC4 [DNM-8]
MIC against S. aureus 29213 [9]: 16 µg/mL (≈ 51.6 µM)
MIC [9]: 16 µg/mL (≈ 51.6 µM)
MIC against S. aureus NRS3 [10]: 0.12 µg/mL (≈ 0.387 µM)
MIC ([11]; strain SAU.1118): 8 µg/mL (≈ 25.8 µM)
MIC ([11]; strain SAU.2996): 2 µg/mL (≈ 6.44 µM)
MIC ([11]; strain SAU.3017): 4 µg/mL (≈ 12.9 µM)
MIC ([11]; strain SAU.3021): 0.125 µg/mL (≈ 0.403 µM)
MIC ([11]; strain SAU.3025): 0.125 µg/mL (≈ 0.403 µM)
MIC ([11]; strain SAU.3026): 0.25 µg/mL (≈ 0.806 µM)
MIC ([11]; strain SAU.42): 8 µg/mL (≈ 25.8 µM)
MIC ([11]; strain SAU.447): 1 µg/mL (≈ 3.22 µM)
MIC ([11]; strain SAU.555): 0.5 µg/mL (≈ 1.61 µM)
MIC ([11]; strain SAU.669): 0.125 µg/mL (≈ 0.403 µM)
Sensitivity of MRSA clinical isolates ([11]; panel of MRSA clinical isolates (n=21)): sensitive
MIC [1, 19]: 16 µg/mL (≈ 51.6 µM)
MIC [1, 20]: 8 µg/mL (≈ 25.8 µM)
MIC ([1]; C21667, gyrA Ser83Ile, parC Ser80Ile): 1 µg/mL (≈ 3.22 µM)
MIC ([1]; C28535, gyrA Ser83Ile, parC Ser80Ile): 1 µg/mL (≈ 3.22 µM)
MIC ([1]; S206, gyrA Ser83 Arg, parC Ser80Ile): 4 µg/mL (≈ 12.9 µM)
MIC ([1]; S234, gyrA Ser83Ile, parC Ser80Ile Glu84Asp): 0.5 µg/mL (≈ 1.61 µM)
MIC ([2]; C21190, gyrA Ser83 Arg, parC Ser80Ile): 8 µg/mL (≈ 25.8 µM)
MIC ([2]; C27282, gyrA Ser83 Arg, parC Ser80Arg): 8 µg/mL (≈ 25.8 µM)
MIC ([2]; C27569, gyrA Ser83Ile, parC Ser80Ile): 1 µg/mL (≈ 3.22 µM)
MIC ([2]; D1, gyrA Ser83Ile, parC Ser80Ile): 0.5 µg/mL (≈ 1.61 µM)
MIC ([2]; S34, gyrA Ser83Ile, parC Ser80 Arg): 2 µg/mL (≈ 6.44 µM)
MIC ([2]; S51, gyrA Ser83Ile, parC Ser80Ile): 1 µg/mL (≈ 3.22 µM)
MIC ([2]; S122, gyrA Ser83Ile, parC Ser80Ile): 1 µg/mL (≈ 3.22 µM)
MIC ([2]; S226, gyrA Ser83Ile, parC Ser80Ile): 1 µg/mL (≈ 3.22 µM)
MIC ([2]; S235, gyrA Ser83Ile, parC Ser80Ile): 1 µg/mL (≈ 3.22 µM)
MIC ([2]; S344, gyrA Ser83Ile, parC Ser80Ile): 1 µg/mL (≈ 3.22 µM)
MIC ([2]; S557, gyrA Ser83Ile, parC Ser80Ile): 0.5 µg/mL (≈ 1.61 µM)
MIC ([2]; SL152, gyrA Ser83Ile, parC Ser80Ile): 1 µg/mL (≈ 3.22 µM)
MIC ([2]; U63, gyrA Ser83 Arg, parC Ser80Ile): 4 µg/mL (≈ 12.9 µM)
MIC ([2]; U275, gyrA Ser83Cys Glu87Gly, parC Ser80Ile): 4 µg/mL (≈ 12.9 µM)
MIC ([2]; U464, gyrA Ser83 Arg, parC Ser80Ile): 2 µg/mL (≈ 6.44 µM)
MIC ([2]; U503, gyrA Ser83 Arg, parC Ser80Ile): 4 µg/mL (≈ 12.9 µM)
MIC ([2]; U563, gyrA Ser83 Arg, parC Ser80Ile): 4 µg/mL (≈ 12.9 µM)
MIC [12]: 1 µg/mL (≈ 3.22 µM)
Sensitivity of VRE clinical isolates [13]: sensitive
MIC ([3]; Escherichia coli, ATCC25922, E. coli ATCC 25922, gyrA none, parC none): > 32 µg/mL
MIC ([4]; PA1586 (CIP resistant clinical isolate)): > 32 µg/mL
MIC ([4]; Pseudomonas aeruginosa, P. aeruginosa PAO1, read-out: MIC): > 32 µg/mL
MIC ([4]; Pseudomonas aeruginosa, read-out: MIC): > 32 µg/mL
MIC [5]: > 32 µg/mL
MIC ([5]; ATCC19606, A. baumannii ATCC 19606, read-out: MIC): > 32 µg/mL
solubility at 1 h [14]: 68 ± 9 µM (≈ 21.1 µg/mL)

Cc1cc(=O)n2c3c(c4c(cc13)c(CO)cc(=O)n4C)OC2 [NM, Nybomycin]
tolerability in mice [15]: well tolerated
activity in mice infected with various bacteria [16]: no activity

CCCc1cc(=O)n(C)c2c3c4c(cc12)c(CCC)cc(=O)n4CO3 [compound 14]
MIC against S. aureus 29213 [9]: > 32 µg/mL
MIC [9]: > 32 µg/mL
MIC against S. aureus NRS3 [10]: 32 µg/mL (≈ 94.6 µM)
solubility at 1 h [17]: < 1 µM

COc1cccc2c1C(=O)c1c(O)c3c(c(O)c1C2=O)C[C@@](O)(C(=O)CO)C[C@@H]3O[C@H]1C[C@H](N)[C@H](O)[C@H](C)O1 [doxorubicin, reference compound]
concentration inhibiting human topoisomerase II [18]: 3 µM
